Experimental data reported in the supplement of paper PMC11061612.

Assays:
Assay in all cases: combination Emax (second highest fraction inhibited in the dose matrix, 72 h); higher = more inhibition; extreme values may be limits of the assay
[1] = tested on: NCI-H1623 (Lung Adenocarcinoma)
Outline: (§1)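 Cell lines grown in DMEM/F12 or RPMI with 10% FBS were plated in 1536-well plates and held 24 hours at 37°C, 5% CO2 before 72 hours of exposure to two-drug dose matrices, with DMSO typically at 0.2%. CellTiter-Glo 2.0 luminescence gave viability, which was converted to inhibition. Vehicle wells were set to 0 and blank wells to 1. Combination Emax is the second-highest inhibition in the matrix, and Bliss excess is the observed combination effect minus the expected EA + EB − EA·EB, where EA and EB are the single-agent effects.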

[2] = tested on: Becker (Low Grade Glioma)
Outline: as §1

[3] = tested on: EB-3 (Burkitt's Lymphoma)
Outline: as §1

[4] = tested on: NKM-1 (Acute Myeloid Leukemia)
Outline: as §1

[5] = tested on: NCI-H196 (Small Cell Lung Carcinoma)
Outline: as §1

[6] = tested on: AN3-CA (Endometrial Carcinoma)
Outline: as §1

[7] = tested on: RMG-I (Ovarian Carcinoma)
Outline: as §1

[8] = tested on: PANC-02-03 (Pancreatic Carcinoma)
Outline: as §1

[9] = tested on: COLO-684 (Endometrial Carcinoma)
Outline: as §1

[10] = tested on: KYSE-70 (Esophageal Squamous Cell Carcinoma)
Outline: as §1

CHL-1 (Melanoma) = tested on: CHL-1 (Melanoma)
Outline: as §1

[11] = tested on: NCI-H1563 (Lung Adenocarcinoma)
Outline: as §1

[12] = tested on: BALL-1 (B-Lymphoblastic Leukemia)
Outline: as §1

[13] = tested on: RL95-2 (Endometrial Carcinoma)
Outline: as §1

[14] = tested on: SNU-175 (Colorectal Carcinoma)
Outline: as §1

HuO-3N1 (Osteosarcoma) = tested on: HuO-3N1 (Osteosarcoma)
Outline: as §1

[15] = tested on: PC-14 (Lung Adenocarcinoma)
Outline: as §1

[16] = tested on: CML-T1 (Chronic Myelogenous Leukemia)
Outline: as §1

KYM-1 (Rhabdomyosarcoma) = tested on: KYM-1 (Rhabdomyosarcoma)
Outline: as §1

[17] = tested on: RERF-LC-KJ (Lung Adenocarcinoma)
Outline: as §1

Row | SMILES | combination Emax [1] | combination Emax [2] | combination Emax [3] | combination Emax [4] | combination Emax [5] | combination Emax [6] | combination Emax [7] | combination Emax [8] | combination Emax [9] | combination Emax [10] | combination Emax (CHL-1 (Melanoma)) | combination Emax [11] | combination Emax [12] | combination Emax [13] | combination Emax [14] | combination Emax (HuO-3N1 (Osteosarcoma)) | combination Emax [15] | combination Emax [16] | combination Emax (KYM-1 (Rhabdomyosarcoma)) | combination Emax [17]
1 | Cc1c2c(nn1C)CSCc1cc(n(C)n1)CSc1cc(c3ccccc3c1)OCCCc1c(C(=O)O)n(C)c3c-2c(Cl)ccc13 [AZD5991] + Cn1cnc2c(F)c(Nc3ccc(Br)cc3Cl)c(C(=O)NOCCO)cc21 [Selumetinib] (first compound max 1 µM, 7x7, partner max 3 µM) | 0.898 | 0.274 | 0.138 | 0.989 | 0.132 | 0.311 | 0.41 | 0.524 | 0.261 | 0.188 | 0.279 | 0.551 | 0.271 | 1 | 0.714 | 0.832 | 0.343 | 0.344 | 0.259 | 0.516
2 | CN(CCO)CC[C@H](CSc1ccccc1)Nc1ccc(S(=O)(=O)NC(=O)c2ccc(N3CCC([C@@H](O)c4ccccc4-c4ccc(Cl)cc4)CC3)cc2)cc1S(=O)(=O)C(F)(F)F [AZD4320] + CCN(CCO)CCCOc1ccc2c(Nc3cc(CC(=O)Nc4cccc(F)c4)[nH]n3)ncnc2c1 [AZD2811] (first compound max 1 µM, 7x7, partner max 1 µM) | 0.197 | 0.224 | 0.241 | 1 | 0.055 | 0.474 | 0.728 | 0.179 | 0.178 | 0.391 | 0.73 | 0.188 | 1 | 0.92 | 0.996 | 0.152 | 0.395 | 0.994 | 0.125 | 0.309
3 | CC1(C)CCC(CN2CCN(c3ccc(C(=O)NS(=O)(=O)c4ccc(NCC5CCOCC5)c([N+](=O)[O-])c4)c(Oc4cnc5[nH]ccc5c4)c3)CC2)=C(c2ccc(Cl)cc2)C1 [Venetoclax] + C1CN(CCC1(C(=O)N[C@@H](CCO)C2=CC=C(C=C2)Cl)N)C3=NC=NC4=C3C=CN4 [Capivasertib] (first compound max 1 µM, 7x7, partner max 3 µM) | 0.314 | 0.359 | 0.176 | 1 | 0.198 | 0.653 | 0.242 | 0.189 | 0.625 | 0.234 | 0.163 | 0.396 | 1 | 0.494 | 0.162 | 0.242 | 0.328 | 0.935 | 0.0721 | 0.377
4 | CC1(C)CCC(CN2CCN(c3ccc(C(=O)NS(=O)(=O)c4ccc(NCC5CCOCC5)c([N+](=O)[O-])c4)c(Oc4cnc5[nH]ccc5c4)c3)CC2)=C(c2ccc(Cl)cc2)C1 [Venetoclax] + C[C@@H]1COCCN1C2=NC(=NC(=C2)C3(CC3)[S@](=N)(=O)C)C4=C5C=CNC5=NC=C4 [AZD6738] (first compound max 1 µM, 7x7, partner max 10 µM) | 0.827 | 0.656 | 0.6 | 1 | 0.376 | 0.653 | 0.545 | 0.508 | 0.753 | 0.433 | 0.879 | 0.307 | 1 | 0.691 | 0.658 | 0.393 | 0.845 | 0.993 | 0.839 | 0.313
5 | COc1cccc2c1C(=O)c1c(O)c3c(c(O)c1C2=O)C[C@@](O)(C(=O)CO)C[C@@H]3O[C@H]1C[C@H](N)[C@H](O)[C@H](C)O1 [Doxorubicin] + Cc1cc2ncnn2cc1Nc1ncc2c(n1)n(C1CCOCC1)c(=O)n2C [AZD7648] (first compound max 1 µM, 7x7, partner max 10 µM) | 0.647 | 0.555 | 0.919 | 0.988 | 0.145 | 0.501 | 0.599 | 0.506 | 0.627 | 0.502 | 0.767 | 0.58 | 0.99 | 0.376 | 0.823 | 0.81 | 0.748 | 1 | 0.956 | 0.711
